Active and inactive are the calls of the source. No cut-off for these calls is given here.

The nature of data set [1]: Dose normalized AUC in mouse at 30 mg/kg, po measured upto 24 hrs by LC-MS/MS analysis. The data set is classed as ADME, organism-based. As to conditions: in vivo.
For data set [2], the system named is MDA-MB-468. Nature of the data set: Synergistic antitumor activity against human MDA-MB-468 cells xenografted in BALB/c nude mouse assessed as tumor growth inhibition at 3 mg/kg, ip qd and measured twice a week for 3 weeks in presence of carboplatin. The data set is classed as functional. As to conditions: MDA-MB-468, 504 h, read-out: TGI.
For data set [3], the species on record is Homo sapiens. The data set can be described thus: Inhibition of CDK1/CyclinA2 (unknown origin) at 1 uM by luminescence based assay relative to control.
Data set [4] is described as follows: Volume of distribution at steady state in monkey at 1 mg/kg, iv measured upto 24 hrs by LC-MS/MS anlaysis. The data set is classed as ADME, organism-based, Macaca mulatta. Particulars: rhesus monkey, in vivo, read-out: Vdss.
The test system of data set [5] is MDA-MB-468. The data set can be described thus: Antitumor activity against human MDA-MB-468 cells xenografted in BALB/c nude mouse assessed as tumor growth inhibition at 3 mg/kg, po qd and measured twice a week for 3 weeks. The data set is classed as functional, organism-based.
Data set [6] is described as follows: Oral bioavailability in dog at 5 mg/kg measured upto 24 hrs by LC-MS/MS analysis. The data set is classed as ADME, organism-based, Canis lupus familiaris. Particulars: in vivo.
For data set [7], the target named is CDK12/Cyclin K (Homo sapiens) (UniProt O75909+Q9NYV4). Nature of the data set: Inhibition of CDK12/cyclinK (unknown origin) at 1 uM by luminescence based assay relative to control. The data set is classed as protein-complex assay.
Data set [8] concerns MV4-11. The data set can be described thus: Antitumor activity against human MV4-11 cells xenografted in BALB/c nude mouse assessed as tumor growth inhibition at 3 mg/kg, po qd and measured twice a week for 3 weeks. The data set is classed as functional. As to conditions: MV4-11, 504 h, read-out: TGI.
Data set [9] can be described thus: AUC(0 to 24 hrs) in monkey at 5 mg/kg, po measured upto 24 hrs by LC-MS/MS analysis. The data set is classed as ADME, organism-based, Macaca mulatta. Particulars: rhesus monkey, in vivo.
Data set [10] in a line: Oral bioavailability in mouse at 30 mg/kg measured upto 24 hrs by LC-MS/MS analysis. The data set is classed as ADME, organism-based. As to conditions: in vivo.
A short description of data set [11]: Tmax in dog at 5 mg/kg, po measured upto 24 hrs by LC-MS/MS analysis. The data set is classed as ADME, organism-based, Canis lupus familiaris. Particulars: in vivo.
Data set [12] concerns MV4-11. Nature of the data set: Antitumor activity against human MV4-11 cells xenografted in BALB/c nude mouse assessed as tumor growth inhibition at 10 mg/kg, po qd and measured twice a week for 3 weeks. The data set is classed as functional. Particulars: MV4-11, 504 h, read-out: TGI.
Data set [13] concerns MV4-11. The data set can be described thus: Potency index, ratio of RVU120 IC50 to test compound IC50 for antiproliferative activity against human MV4-11 cells. The data set is classed as functional.
For data set [14], the target named is CDK8/Cyclin C (Homo sapiens, UniProt P49336). The data set can be described thus: Displacement of tracer 236 from CDK8/cyclin C (unknown origin) preincubated for 15 mins followed by tracer addition and measured after 60 mins by FRET based lanthascreen assay. The data set is classed as protein-complex assay.
Data set [15] is described as follows: Toxicity in BALB/c nude mouse assessed as changes in body weight at 3 to 10 mg/kg, po qd measured twice a week for 3 weeks. Particulars: in vivo, 504 h, dose 3-10 mg/kg. The data set is classed as organism-based.
Data set [16] is described as follows: Toxicity in CB17 SCID mouse xenografted with human Z138 cells assessed as change in body weight at 2.5 to 5 mg/kg, po qd for 3 weeks in presence of rituximab. The data set is classed as organism-based. Particulars: in vivo, 504 h, dose 2.5-5 mg/kg.
In data set [17] the target is CDK6/cyclin D3 (Homo sapiens) (UniProt P30281+Q00534). The data set can be described thus: Inhibition of CDK6/cyclinD3 (unknown origin) at 1 uM by luminescence based assay relative to control. The data set is classed as protein-complex assay.
Data set [18] concerns Mus musculus. The data set can be described thus: In vivo inhibition of STAT3 phosphorylation in BALB/c nude mouse tumor xenografted with human MV4-11 cells at 10 mg/kg, po qd for 3 weeks and measured 8 to 24 hrs post last dose. The data set is classed as functional, organism-based. Particulars: time 22.0 day.
Data set [19] in a line: Oral bioavailability in rat at 10 mg/kg measured upto 24 hrs by LC-MS/MS analysis. Particulars: in vivo. The data set is classed as ADME, organism-based.
Data set [20] has as its target CDK3/Cyclin E (Homo sapiens) (UniProt P24864+Q00526). Nature of the data set: Inhibition of CDK3/cyclinE1 (unknown origin) at 1 uM by luminescence based assay relative to control. The data set is classed as protein-complex assay.
A short description of data set [21]: Cmax in mouse at 30 mg/kg, po measured upto 24 hrs by LC-MS/MS analysis. The data set is classed as ADME, organism-based. As to conditions: in vivo.
The nature of data set [22]: Dose normalized AUC in dog at 5 mg/kg, po measured upto 24 hrs by LC-MS/MS analysis. The data set is classed as ADME, organism-based, Canis lupus familiaris. Particulars: in vivo.
Data set [23] can be described thus: Tmax in monkey at 5 mg/kg, po measured upto 24 hrs by LC-MS/MS analysis. The data set is classed as ADME, organism-based, Macaca mulatta. As to conditions: rhesus monkey, in vivo.
Data set [24] can be described thus: Cmax in rat at 10 mg/kg, po measured upto 24 hrs by LC-MS/MS analysis. The data set is classed as ADME, organism-based. As to conditions: in vivo.
The nature of data set [25]: Dose normalized AUC in monkey at 5 mg/kg, po measured upto 24 hrs by LC-MS/MS analysis. The data set is classed as ADME, organism-based, Macaca mulatta. As to conditions: rhesus monkey, in vivo.
A short description of data set [26]: AUC(0 to 24 hrs) in mouse at 30 mg/kg, po measured upto 24 hrs by LC-MS/MS analysis. The data set is classed as ADME, organism-based. As to conditions: in vivo.
Data set [27] addresses CDK18/Cyclin Y (Homo sapiens) (UniProt Q07002+Q8ND76). Nature of the data set: Inhibition of CDK18/cyclinY (unknown origin) at 1 uM by luminescence based assay relative to control. The data set is classed as protein-complex assay.
Data set [28] in a line: Cmax in dog at 3 mg/kg, po measured upto 24 hrs by LC-MS/MS analysis. The data set is classed as ADME, organism-based, Canis lupus familiaris. Particulars: in vivo.
A short description of data set [29]: Selectivity ratio of IC50 for CDK2/CyclinE1 (unknown origin) to IC50 for CDK8/Cyclin C (unknown origin).
The nature of data set [30]: Dose normalized AUC in mouse at 5 mg/kg, po measured upto 24 hrs by LC-MS/MS analysis. As to conditions: in vivo. The data set is classed as ADME, organism-based.
The nature of data set [31]: Tmax in rat at 5 mg/kg, po measured upto 24 hrs by LC-MS/MS analysis. The data set is classed as ADME, organism-based. Particulars: in vivo.
Data set [32] is described as follows: Dose normalized AUC in rat at 5 mg/kg, po measured upto 24 hrs by LC-MS/MS analysis. The data set is classed as ADME, organism-based. As to conditions: in vivo.
Data set [33] can be described thus: Oral bioavailability in dog at 3 mg/kg measured upto 24 hrs by LC-MS/MS analysis. The data set is classed as ADME, organism-based, Canis lupus familiaris. As to conditions: in vivo.
Data set [34] is described as follows: AUC(0 to 24 hrs) in mouse at 5 mg/kg, po measured upto 24 hrs by LC-MS/MS analysis. Particulars: in vivo. The data set is classed as ADME, organism-based.
The nature of data set [35]: Selectivity ratio of IC50 for CDK5/p35NCK (unknown origin) to IC50 for CDK8/Cyclin C (unknown origin).
A short description of data set [36]: Selectivity ratio of IC50 for CDK1/CyclinA2 (unknown origin) to IC50 for CDK8/Cyclin C (unknown origin).
Data set [37] is described as follows: Tmax in dog at 3 mg/kg, po measured upto 24 hrs by LC-MS/MS analysis. The data set is classed as ADME, organism-based, Canis lupus familiaris. Particulars: in vivo.
The nature of data set [38]: Dose normalized AUC in dog at 3 mg/kg, po measured upto 24 hrs by LC-MS/MS analysis. The data set is classed as ADME, organism-based, Canis lupus familiaris. As to conditions: in vivo.
Data set [39] in a line: Selectivity ratio of IC50 for CDK2/CyclinA2 (unknown origin) to IC50 for CDK8/Cyclin C (unknown origin).
Data set [40] is described as follows: Cmax in mouse at 5 mg/kg, po measured upto 24 hrs by LC-MS/MS analysis. The data set is classed as ADME, organism-based. Particulars: in vivo.
The nature of data set [41]: AUC(0 to 24 hrs) in dog at 3 mg/kg, po measured upto 24 hrs by LC-MS/MS analysis. The data set is classed as ADME, organism-based, Canis lupus familiaris. Particulars: in vivo.
In data set [42] the test system is Mus musculus. Nature of the data set: In vivo inhibition of STAT3 phosphorylation in BALB/c nude mouse tumor xenografted with human MV4-11 cells at 60 mg/kg, po qd for 3 weeks and measured 8 to 24 hrs post last dose. The data set is classed as functional, organism-based. As to conditions: time 22.0 day.

Chain of CDK12/Cyclin K (Homo sapiens) (O75909 whole entry, looked up): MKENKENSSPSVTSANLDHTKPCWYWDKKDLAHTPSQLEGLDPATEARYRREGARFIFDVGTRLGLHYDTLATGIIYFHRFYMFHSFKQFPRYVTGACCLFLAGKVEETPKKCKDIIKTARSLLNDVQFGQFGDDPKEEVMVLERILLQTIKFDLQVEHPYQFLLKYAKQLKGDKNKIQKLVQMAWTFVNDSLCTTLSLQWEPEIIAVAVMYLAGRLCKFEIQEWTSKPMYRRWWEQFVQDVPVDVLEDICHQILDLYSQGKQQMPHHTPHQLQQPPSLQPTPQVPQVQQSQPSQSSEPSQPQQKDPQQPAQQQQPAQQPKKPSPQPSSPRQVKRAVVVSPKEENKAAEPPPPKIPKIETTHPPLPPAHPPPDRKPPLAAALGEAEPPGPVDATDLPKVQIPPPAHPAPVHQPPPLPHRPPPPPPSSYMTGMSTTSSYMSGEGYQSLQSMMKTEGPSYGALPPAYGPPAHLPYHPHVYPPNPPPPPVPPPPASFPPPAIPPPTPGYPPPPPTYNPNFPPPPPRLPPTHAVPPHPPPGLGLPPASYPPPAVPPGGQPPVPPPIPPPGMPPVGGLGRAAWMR
Chain of CDK12/Cyclin K (Homo sapiens) (Q9NYV4 whole entry, looked up): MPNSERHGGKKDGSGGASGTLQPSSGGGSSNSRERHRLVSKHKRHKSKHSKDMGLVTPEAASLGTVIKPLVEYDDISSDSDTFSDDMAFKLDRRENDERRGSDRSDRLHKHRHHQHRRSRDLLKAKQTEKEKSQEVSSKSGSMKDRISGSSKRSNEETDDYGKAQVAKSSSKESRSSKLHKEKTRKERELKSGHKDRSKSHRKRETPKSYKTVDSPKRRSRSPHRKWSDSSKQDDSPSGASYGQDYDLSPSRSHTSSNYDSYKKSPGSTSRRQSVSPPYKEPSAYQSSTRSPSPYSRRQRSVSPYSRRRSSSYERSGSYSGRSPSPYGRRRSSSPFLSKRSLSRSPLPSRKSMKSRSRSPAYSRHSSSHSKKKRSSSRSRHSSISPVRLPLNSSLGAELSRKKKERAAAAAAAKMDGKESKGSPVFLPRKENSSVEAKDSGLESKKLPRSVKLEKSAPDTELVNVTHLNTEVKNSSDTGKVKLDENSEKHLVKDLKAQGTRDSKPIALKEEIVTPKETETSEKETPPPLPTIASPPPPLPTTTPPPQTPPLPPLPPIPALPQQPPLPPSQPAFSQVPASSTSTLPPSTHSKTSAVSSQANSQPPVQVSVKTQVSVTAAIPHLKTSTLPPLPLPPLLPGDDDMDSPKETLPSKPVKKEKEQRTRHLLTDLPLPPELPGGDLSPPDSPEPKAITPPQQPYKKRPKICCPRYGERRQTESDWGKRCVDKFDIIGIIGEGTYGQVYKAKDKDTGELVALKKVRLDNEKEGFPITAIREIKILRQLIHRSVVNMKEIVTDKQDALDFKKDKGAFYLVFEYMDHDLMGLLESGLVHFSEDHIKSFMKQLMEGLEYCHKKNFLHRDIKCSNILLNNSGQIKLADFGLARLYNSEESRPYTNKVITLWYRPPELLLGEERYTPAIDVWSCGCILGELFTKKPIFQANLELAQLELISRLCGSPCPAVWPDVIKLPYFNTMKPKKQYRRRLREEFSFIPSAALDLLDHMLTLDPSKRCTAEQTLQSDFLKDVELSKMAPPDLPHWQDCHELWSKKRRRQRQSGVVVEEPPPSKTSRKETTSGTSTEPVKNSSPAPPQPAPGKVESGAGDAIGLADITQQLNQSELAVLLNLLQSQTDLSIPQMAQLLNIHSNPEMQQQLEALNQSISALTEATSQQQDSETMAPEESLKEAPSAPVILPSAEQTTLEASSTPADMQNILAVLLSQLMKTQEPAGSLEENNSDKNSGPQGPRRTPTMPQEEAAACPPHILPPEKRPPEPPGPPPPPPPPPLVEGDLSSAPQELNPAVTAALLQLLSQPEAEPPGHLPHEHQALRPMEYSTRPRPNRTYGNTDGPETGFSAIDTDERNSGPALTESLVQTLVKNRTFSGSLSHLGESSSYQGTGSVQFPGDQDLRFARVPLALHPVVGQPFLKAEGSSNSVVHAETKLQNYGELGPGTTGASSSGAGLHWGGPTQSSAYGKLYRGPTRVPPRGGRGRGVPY
Chain of CDK8/Cyclin C (P49336 whole entry): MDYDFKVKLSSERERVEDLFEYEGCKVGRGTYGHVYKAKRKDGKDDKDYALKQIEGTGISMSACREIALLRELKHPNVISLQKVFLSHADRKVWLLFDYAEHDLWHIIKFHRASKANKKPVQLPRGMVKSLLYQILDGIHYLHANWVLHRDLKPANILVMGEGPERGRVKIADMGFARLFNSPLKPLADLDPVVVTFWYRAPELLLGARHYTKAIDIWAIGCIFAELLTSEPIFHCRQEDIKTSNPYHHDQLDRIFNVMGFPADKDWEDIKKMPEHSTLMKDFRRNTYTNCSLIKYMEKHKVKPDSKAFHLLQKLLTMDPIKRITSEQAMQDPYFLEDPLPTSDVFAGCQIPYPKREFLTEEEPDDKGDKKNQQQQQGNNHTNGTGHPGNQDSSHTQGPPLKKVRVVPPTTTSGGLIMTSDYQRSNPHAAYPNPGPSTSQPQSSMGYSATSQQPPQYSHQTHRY
Chain of CDK8/Cyclin C (P24863 whole entry, further chain): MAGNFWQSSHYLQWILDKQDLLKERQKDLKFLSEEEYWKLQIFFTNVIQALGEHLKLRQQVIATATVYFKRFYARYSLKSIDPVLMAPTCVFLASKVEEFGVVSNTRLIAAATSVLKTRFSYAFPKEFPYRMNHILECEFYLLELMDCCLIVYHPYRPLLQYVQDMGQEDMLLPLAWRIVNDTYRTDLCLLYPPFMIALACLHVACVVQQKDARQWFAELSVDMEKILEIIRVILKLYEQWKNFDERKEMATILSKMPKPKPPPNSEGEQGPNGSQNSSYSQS
Chain of CDK3/Cyclin E (Homo sapiens) (P24864 whole entry, looked up): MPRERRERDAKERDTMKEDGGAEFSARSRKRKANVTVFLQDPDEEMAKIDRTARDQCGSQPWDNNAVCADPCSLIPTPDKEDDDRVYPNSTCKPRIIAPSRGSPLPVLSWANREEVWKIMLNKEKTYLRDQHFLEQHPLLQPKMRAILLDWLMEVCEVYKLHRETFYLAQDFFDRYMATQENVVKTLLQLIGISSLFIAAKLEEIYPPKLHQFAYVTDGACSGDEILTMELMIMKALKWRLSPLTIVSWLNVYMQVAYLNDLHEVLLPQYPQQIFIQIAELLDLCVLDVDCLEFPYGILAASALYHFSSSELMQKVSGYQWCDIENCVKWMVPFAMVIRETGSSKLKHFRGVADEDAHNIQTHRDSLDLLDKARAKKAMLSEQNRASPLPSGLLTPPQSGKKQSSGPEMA
Chain of CDK3/Cyclin E (Homo sapiens) (Q00526 whole entry, looked up): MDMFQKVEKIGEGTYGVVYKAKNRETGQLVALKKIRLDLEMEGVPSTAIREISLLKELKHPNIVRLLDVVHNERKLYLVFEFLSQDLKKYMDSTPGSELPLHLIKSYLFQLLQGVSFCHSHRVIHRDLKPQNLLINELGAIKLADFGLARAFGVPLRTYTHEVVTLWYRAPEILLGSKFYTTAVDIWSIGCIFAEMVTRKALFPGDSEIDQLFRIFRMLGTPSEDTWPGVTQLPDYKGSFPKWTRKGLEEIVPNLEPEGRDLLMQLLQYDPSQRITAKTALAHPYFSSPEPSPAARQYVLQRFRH

For `FC(F)c1c(Br)c(Br)cc2c1nc(N1CCNCC1)n2C1CCOCC1`, the AUC/dose in [1] was found to be 796 ng·h/mL; in data set [22], 1117 ng·h/mL; in data set [25] it was 2503 ng·h/mL. For the same molecule, the inhibition in vivo at 3 mg/kg in data set [2] is 66%; in [8], 29%. In addition, the inhibition in data set [3] was found to be 76.2%; in [7] it was 69.6%; in data set [17] it was 2.33%; in [20] it was 45.4%; in [27], 65%. In addition, the Vd in data set [4] came to 7.05 L/kg. Further, the result in data set [5] was inactive. For the same molecule, the bioavailability was 85% in [6], 67% in data set [10] and 89% in [19]. Also, the AUC(0-t) at 24 h in data set [9] is 12500 ng·h/mL; in [26], 23900 ng·h/mL. The time of peak concentration (Tmax) in data set [11] worked out at 2 h; in data set [23], 4 h. For the same molecule, the inhibition in vivo at 10 mg/kg in data set [12] turned out to be 36%. In data set [13], the “Ratio IC50” value is listed as 7. The IC50 in data set [14] is 2.1 nM. In addition, the Activity entry in [15] and in data set [16] was “Non-Toxic” throughout. In data set [18], the inhibition entry was “Active”. The maximum concentration (Cmax) in data set [21] came to 2280 ng/mL; in [24], 190 ng/mL.

Consider `Cc1c(Br)c(Br)c2c3c1nc(N1CCNCC1)n3CCC2` [SEL-120 FREE BASE], for which the Cmax in data set [28] was found to be 215 ng/mL; in data set [40], 143 ng/mL. In addition, the Ratio IC50 in data set [29] is 0.1; in data set [35], 0.1; in [36], 1.2; in [39] it was 0.3. For the same molecule, the values for the AUC/dose in [30], in data set [32] and in [38] were 270 ng·h/mL, 11.2 ng·h/mL and 685 ng·h/mL, respectively. The figures for the Tmax in data set [31] and in [37] were 1.67 h and 4.18 h, respectively. Also, in [33], the bioavailability turned out to be 136%. In addition, the AUC(0-t) at 24 h in data set [34] is 1350 ng·h/mL; in data set [41] it was 2060 ng·h/mL. Besides, in data set [42], the inhibition entry is “Active”.

(Values after ChEMBL document CHEMBL5506027, “Discovery of a Novel and Potent Cyclin-Dependent Kinase 8/19 (CDK8/19) Inhibitor for the Treatment of Cancer” (J Med Chem, 2024).)
